Assays:
[1] = target: T1, human 5-HT1Dβ (5-HT1B) receptor (Homo sapiens, UniProt P28222); experiment: Competition binding ([3H]serotonin) at cloned human 5-HT1Dβ (5-HT1B) receptor; details: read-out: binding affinity (pKi) 5-HT1Dβ (5-HT1B) (converted)
T1 construct: expressed in transfected cells; host or cells: LM(tk-) clonal cell line Ltk-11 (ATCC CRL 10422)
Method: 5-HT1Dα (5-HT1D) and 5-HT1Dβ (5-HT1B) receptors: The cell lysates of the LM(tk-) clonal cell line stably transfected with the genes encoding each of these 5-HT receptor subtypes were prepared as described above. The cell line for the 5-HT1Dα (5-HT1D) receptor, designated as Ltk-8-30-84, was deposited on Apr. 17, 1990, and accorded ATCC Accession No. CRL 10421. The cell line for the 5-HT1Dβ (5-HT1B) receptor, designated as Ltk-11, was deposited on Apr. 17, 1990, and accorded ATCC Accession No. CRL 10422. These preparations were suspended in 50 mM Tris-HCl buffer (pH 7.4 at 37° C.) containing 10 mM MgCl2, 0.2 mM EDTA, 10 μM pargyline, and 0.1% ascorbate. […] Nonspecific binding was determined in the presence of 10 μM serotonin. The bound radioligand was separated by filtration through GF/B filters using a cell harvester.

[2] = test system: conscious, normotensive rats; experiment: Mean arterial blood pressure in conscious, normotensive rats; format: in vivo, rat; details: 4.0 mg/kg i.v., 0-60 min
Method: Rats were anesthetized and a PE50 chronic indwelling cannula was placed in the abdominal aorta for measurement of blood pressure. On the following day, 5 rats each were administered vehicle (1% DMSO) or Compound 7 (4.0 mg/kg in 1% DMSO, i.v.) and mean blood pressure measurements were recorded at 0, 5, 30, and 60 minutes thereafter.

T1 sequence (P28222 whole entry): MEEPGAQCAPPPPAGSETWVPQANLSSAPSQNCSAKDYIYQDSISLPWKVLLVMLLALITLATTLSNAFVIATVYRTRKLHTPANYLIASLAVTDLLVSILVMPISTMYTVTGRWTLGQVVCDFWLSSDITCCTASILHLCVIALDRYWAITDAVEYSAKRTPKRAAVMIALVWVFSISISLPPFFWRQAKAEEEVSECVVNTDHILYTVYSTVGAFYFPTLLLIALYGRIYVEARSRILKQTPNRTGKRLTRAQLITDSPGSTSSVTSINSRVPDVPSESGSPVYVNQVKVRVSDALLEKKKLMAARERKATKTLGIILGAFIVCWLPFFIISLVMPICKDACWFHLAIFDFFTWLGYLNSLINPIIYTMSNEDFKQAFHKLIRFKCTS

O=C1CC2(CCCC2)CC(=O)N1CCN1CCN(c2cc(F)c(F)cc2F)CC1 [Compound 7, 8-{2-[4-(2,4,5-Trifluorophenyl)piperazin-1-yl]ethyl}-8-azaspiro[4.5]decane-7,9-dione]
Ki [1]: 5.01 µM
effect on mean blood pressure [2]: no reduction in blood pressure

From patent US6706716B2, “Compounds specific for the human α1d adrenergic receptor and uses thereof” (Synaptic Pharmaceutical Corporation, priority 1998, dated 2004)
